From US4749702A, “Antidepressive substituted N-[(4-piperidinyl)alkyl] bicyclic condensed oxazol- and thiazolamines” (Janssen Pharmaceutica N. V., priority 1987, dated 1988)

system: Loss in righting reflex induced by xylazine; assay: Loss of righting reflex test (xylazine antagonism); assay type: in vivo, Female Wistar strain rats; settings: female Wistar rats 220-270 g; test compound 60 min before observation; xylazine 20 mg/kg i.p. 30 min later; route of test compound not given
Description: Loss of righting reflex test Female Wistar strain rats weighing 220-270 g were used throughout the test. Sixty minutes before observations were made, the rats were treated with a test compound or with a saline solution. Thirty minutes later, all animals received an intraperitoneal injection of 20 mg/kg body weight of xylazine. […] The degree of which the righting reflex was compromised, was scored 0-3 depending on the animal's response to it being put gently on its back on a flat surface. Score 3: complete loss of righting reflexes; score 2: some righting movements occur, but these fail to result in a 180° turn of the body; score 1: righting movements do result in a 180° turn of the body, but the process takes noticeably more time than it does in normal animals; score 0: righting is effected with a speed similar to that of normal rats.

Point of comparison: `COc1ccc2nc(NCC3CCN(CC4COc5ccccc5O4)CC3)sc2c1` (stereo not drawn) [Compound 68, N-[[1-[(2,3-dihydro-1,4-benzodioxin-2-yl)methyl]-4-piperidinyl]methyl]-6-methoxy-2-benzothiazolamine], “Loss in righting reflex induced by xylazine ED50-values (dose producing loss of righting reflex scores <3 in 50% of the tested animals)” value 0.16 mg/kg. Against it:
- c1ccc2c(c1)OCC(CN1CCC(CNc3nc4cccnc4s3)CC1)O2 (stereo not drawn) [Compound 8, N-[[1-[(2,3-dihydro-1,4-benzodioxin-2-yl)methyl]-4-piperidinyl]methyl]thiazolo[5,4-b]pyridin-2-amine] — 2-fold lower, 0.08 mg/kg
- c1ccc2c(c1)OC[C@H](CN1CCC(CNc3nc4cccnc4s3)CC1)O2 [Compound 13, (-)-(S)-N-[[1[(2,3-dihydro-1,4-benzodioxin-2-yl)methyl]-4-piperidinyl]methyl]thiazolo[5,4-b]pyridin-2-amine] — 2-fold lower, 0.08 mg/kg
- Fc1ccc2nc(NCC3CCN(CC4COc5ccccc5O4)CC3)sc2c1 (stereo not drawn) [Compound 19, N-[[1-[(2,3-dihydro-1,4-benzodioxin-2-yl)methyl]-4-piperidinyl]methyl]-6-fluoro-2-benzothiazolamine] — 1.9-fold higher, 0.31 mg/kg
- Fc1cccc2sc(NCC3CCN(CC4COc5ccccc5O4)CC3)nc12 (stereo not drawn) [Compound 20, N-[[1-[(2,3-dihydro-1,4-benzodioxin-2-yl)methyl]-4-piperidinyl]methyl]-4-fluoro-2-benzothiazolamine] — 2.4-fold lower, 0.066 mg/kg
- Cc1ccc2nc(NCC3CCN(CC4COc5ccccc5O4)CC3)sc2c1 (stereo not drawn) [Compound 21, N-[[1-[(2,3-dihydro-1,4-benzodioxin-2-yl)methyl]-4-piperidinyl]methyl]-6-methyl-2-benzothiazolamine] — within 1.5-fold, 0.14 mg/kg
- COc1cc2nc(NCC3CCN(CC4COc5ccccc5O4)CC3)sc2c(OC)c1OC (stereo not drawn) [Compound 26, N-[[1-[(2,3-dihydro-1,4-benzodioxin-2-yl)methyl]-4-piperidinyl]methyl]-5,6,7-trimethoxy-2-benzothiazolamine (E)-2-butenedioate(2:3)] — 2-fold lower, 0.08 mg/kg
- COc1cc2nc(NCC3CCN(CC4COc5ccccc5O4)CC3)sc2cc1OC (stereo not drawn) [Compound 27, N-[[1-[(2,3-dihydro-1,4-benzodioxin-2-yl)methyl]-4-piperidinyl]methyl]-5,6-dimethoxy-2-benzothiazolamine] — the same, 0.16 mg/kg
- c1ccc2c(c1)OCC(CN1CCC(CNc3nc4cc5c(cc4s3)OCO5)CC1)O2 (stereo not drawn) [Compound 28, N-[[1-[(2,3-dihydro-1,4-benzodioxin-2-yl)methyl]-4-piperidinyl]methyl]-1,3-dioxolo[4,5-f]benzothiazol-6-amine] — 1.9-fold higher, 0.31 mg/kg
- c1ccc2c(c1)OCC(CN1CCC(CCNc3nc4ccccc4s3)CC1)O2 (stereo not drawn) [Compound 30, N-[2-[1[(2,3-dihydro-1,4-benzodioxin-2-yl)methyl]-4-piperidinyl]ethyl]-2-benzothiazolamine] — 1.9-fold higher, 0.31 mg/kg
- COc1cc(OC)c2sc(NCC3CCN(C[C@H]4COc5ccccc5O4)CC3)nc2c1 [Compound 34] — 1.9-fold higher, 0.31 mg/kg
- COc1cc2nc(NCC3CCN(CC4CCc5ccccc5O4)CC3)sc2cc1OC (stereo not drawn) [Compound 35] — 1.9-fold higher, 0.31 mg/kg
- Cl.Cl.c1ccc2c(c1)OCC(CN1CCC(CNc3nc4ccccc4o3)CC1)O2 (stereo not drawn) [Compound 42, N-[[1-[(2,3-dihydro-1,4-benzodioxin-2-yl)methyl]-4-piperidinyl]methyl]-2-benzoxazolamine dihydrochloride] — 1.9-fold higher, 0.31 mg/kg
- Cl.Cl.Oc1ccc2nc(NCC3CCN(CC4COc5ccccc5O4)CC3)sc2c1 (stereo not drawn) [Compound 57, 2-[[[1-[(2,3-dihydro-1,4-benzodioxin-2-yl)methyl]-4-piperidinyl]methyl]amino]-6-benzothiazolol dihydrochloride] — 1.9-fold higher, 0.31 mg/kg
- c1ccc2c(c1)OCC(CN1CCC(CNc3nc4cnccc4s3)CC1)O2 (stereo not drawn) [Compound 58, N-[[1-[(2,3-dihydro-1,4-benzodioxin-2-yl)methyl]-4-piperidinyl]methyl]thiazolo[4,5-c]pyridin-2-amine] — 2-fold lower, 0.080 mg/kg
